Columns and labels:
Format in all cases: binding
[1] = tested on: human monoclonal antibody CRJB
[2] = tested on: human monoclonal antibody CR57
[3] = tested on: human monoclonal antibody CRJA
[4] = tested on: human monoclonal antibody CRJA; remark: listed apart in the source
[5] = tested on: human monoclonal antibody CRJB; remark: listed apart in the source
[6] = tested on: human monoclonal antibody CR57; remark: listed apart in the source

Sequence	Binding of CRJB to looped/cyclic peptide (PEPSCAN-ELISA signal) [1]	Binding of human monoclonal antibody CR57 to linear peptide (PEPSCAN-ELISA signal) [2]	Binding of human monoclonal antibody CRJA to linear peptide (PEPSCAN-ELISA signal) [3]	Binding of CRJA to looped/cyclic peptide (PEPSCAN-ELISA signal) [4]	Binding of human monoclonal antibody CRJB to linear peptide (PEPSCAN-ELISA signal) [5]	Binding of CR57 to looped/cyclic peptide (PEPSCAN-ELISA signal) [6]	Binding of CRJB (10 μg/ml) to looped/cyclic peptide (PEPSCAN-ELISA signal) [1]	Binding of CR57 to linear peptide (PEPSCAN-ELISA signal) [2]	Binding of CRJA to linear peptide (PEPSCAN-ELISA signal) [3]	Binding of CRJA (10 μg/ml) to looped/cyclic peptide (PEPSCAN-ELISA signal) [4]	Binding of CRJB to linear peptide (PEPSCAN-ELISA signal) [5]	Binding of CR57 (10 μg/ml) to looped/cyclic peptide (PEPSCAN-ELISA signal) [6]	Binding of CRJB (10 μg/ml) to looped/cyclic peptide (PEPSCAN-ELISA) [1]	Binding of CRJA (10 μg/ml) to looped/cyclic peptide (PEPSCAN-ELISA) [4]	Binding of CR57 (10 μg/ml) to looped/cyclic peptide (PEPSCAN-ELISA) [6]	binding of antibody CR57 to linear peptide (PEPSCAN OD) [2]
DVHNQVSGVDLGLPN	113	117	124	99	133	120										
YILAIKMNGFTCTGV							49	47	45	45	107	55				
CGVLGLRLMDGTWVA								99	96		117		91	101	110	
CKLKLCGVLGLRLMD								410	88		111		74	91	64	bound
ALESIMTTKSVSFRR								97	107		132		111	108	136	
TTKESLVIISPSVAD							71	78	91	108	121	114				
KRKHFRPTPDACRAA							84	65	65	85	93	94				
SSVIPLVHPLADPST								73	60		104		80	45	120	
VRTWNEILPSKGCLR								90	105		124		98	114	121	
STNHDYTIWMPENPR							74	60	77	51	112	72				
FVEVHLPDVHNQVSG	101	92	93	103	143	150										
IMTTKSVSFRRLSHL								43	85		101		42	63	74	
WLRTVKTTKESLVII							78	41	85	78	104	55				
EDEGCTNLSGFSYME							68	54	65	54	90	76				
KRASKGSETCGFVDE								92	97		106		85	101	120	
ELLESSVIPLVHPLA								90	85		133		88	73	112	
SDEIEHLVVEELVRK								101	97		117		85	99	96	
TCTGVVTEAENYTNF							93	92	96	112	112	107				
DIHHLSCPNNLVVED							48	38	61	62	96	52				
KMNGFTCTGVVTEAE							71	76	90	83	104	77				
FNKTLMEADAHYKSV								111	86		141		129	101	124	
GKCSGVAVSSTYCST							74	92	103	97	143	79				
LRTVKTTKESLVIIS							68	65	83	86	104	89				
LVVEELVRKREECLD								64	65		100		76	50	68	
